Test results from US9724382B2, “Pharmaceutical compositions comprising cyclosporin” (PARI Pharma GmbH, priority 2005, dated 2017).
Where two headings read alike, the source gives them in different places.

Columns and labels:
[1] = test system: calu-3 cells (confluent monolayer); experiment: Trans-epithelial electrical resistance (TEER) of calu-3 monolayer; conditions: for TEER [% of 0 hours]: positive control 0.1%
[2] = test system: calu-3 cells (confluent monolayer); conditions: for TEER after 2 h Average / TEER after 24 h Average: human
[3] = test system: calu-3 cells; conditions: depending on the concentration; cited from earlier work

CCCCCCCCCCCCOS(=O)(=O)[O-].[Na+] [SDS, sodium dodecyl sulphate]
TEER after 2 h Average ([1]; Conc. 0.001 %): 114%
TEER after 24 h Average ([1]; Conc. 0.001 %): 107%
TEER after 2 h Average ([1]; Conc. 0.010 %): 7%
TEER after 24 h Average ([1]; Conc. 0.010 %): 2%
TEER after 2 h Average ([1]; Conc. 0.100 %): 3%
TEER after 24 h Average ([1]; Conc. 0.100 %): 2%
effect on the integrity of the calu-3 monolayer ([1]; conclusion from TEER values): significant and largely non-reversible damage
TEER [% of 0 hours] ([1]; time 0 h): 20%
TEER [% of 0 hours] ([1]; time 1 h): 19%
TEER [% of 0 hours] ([1]; time 2 h): 19%
TEER [% of 0 hours] ([1]; time 24 h): 11%

CC(O)CO (stereo not drawn) [Propylene glycol, propylene glycol]
effect on the integrity of the calu-3 monolayer [2]: significant and largely non-reversible damage
TEER after 2 h Average ([2]; 0.1 %): 116%
TEER after 2 h Average ([2]; 0.5 %): 120%
TEER after 2 h Average ([2]; 5 %): 36%
TEER after 2 h Average ([2]; 10 %): 14%
TEER after 24 h Average ([2]; 0.1 %): 83%
TEER after 24 h Average ([2]; 0.5 %): 83%
TEER after 24 h Average ([2]; 5 %): 75%
TEER after 24 h Average ([2]; 10 %): 43%
effect on calu-3 cells [3]: kills calu-3 cells
